pKi: −log10 of the molar value.
Assays:
[1] = biological target: Histamine H3 receptor (Homo sapiens, UniProt Q9Y5N1); assay: Displacement of [3H]N-alpha-methylhistamine from human cloned H3 receptor; settings: for pKi: read-out: Ki
[2] = biological target: Histamine H3 receptor (Rattus norvegicus, UniProt Q9QYN8); assay: Displacement of [3H]N-alpha-methylhistamine from rat cloned H3 receptor
[3] = Oral bioavailability in rat at 10 mg/kg; assay type: ADME, organism-based; settings: in vivo
[4] = Inhibition of [3H]R-alpha-methylhistamine binding to brain of po dosed rat; assay type: functional, organism-based

Sequence of Histamine H3 receptor (Rattus norvegicus, UniProt Q9QYN8) (Q9QYN8 whole entry): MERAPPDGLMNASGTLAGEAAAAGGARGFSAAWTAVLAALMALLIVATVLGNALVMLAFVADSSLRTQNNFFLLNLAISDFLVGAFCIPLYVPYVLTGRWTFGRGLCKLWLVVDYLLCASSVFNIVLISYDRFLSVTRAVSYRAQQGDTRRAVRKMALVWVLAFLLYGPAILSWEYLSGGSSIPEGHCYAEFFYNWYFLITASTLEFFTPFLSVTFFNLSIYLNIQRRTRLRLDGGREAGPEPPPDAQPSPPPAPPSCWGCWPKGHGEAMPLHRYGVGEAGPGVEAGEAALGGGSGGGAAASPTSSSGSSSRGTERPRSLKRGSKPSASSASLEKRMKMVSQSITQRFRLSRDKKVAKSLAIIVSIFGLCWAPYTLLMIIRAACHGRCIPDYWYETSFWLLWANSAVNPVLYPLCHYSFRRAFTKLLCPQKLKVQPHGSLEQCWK
Sequence of Histamine H3 receptor (Homo sapiens, UniProt Q9Y5N1) (Q9Y5N1 whole entry): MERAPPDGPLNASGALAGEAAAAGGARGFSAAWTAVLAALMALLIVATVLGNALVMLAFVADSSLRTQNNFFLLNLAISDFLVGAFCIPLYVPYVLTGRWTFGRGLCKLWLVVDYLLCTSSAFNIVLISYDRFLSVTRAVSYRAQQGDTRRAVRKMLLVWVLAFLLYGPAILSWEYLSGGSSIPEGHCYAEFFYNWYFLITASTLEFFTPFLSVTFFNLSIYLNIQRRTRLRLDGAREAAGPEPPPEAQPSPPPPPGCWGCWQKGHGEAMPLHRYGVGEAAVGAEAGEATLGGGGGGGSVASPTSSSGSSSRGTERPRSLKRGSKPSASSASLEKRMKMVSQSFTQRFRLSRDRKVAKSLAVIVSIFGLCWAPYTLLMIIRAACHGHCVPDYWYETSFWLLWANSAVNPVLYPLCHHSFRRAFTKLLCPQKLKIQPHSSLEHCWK

In the case of O=S(=O)(c1ccccc1)N1CCc2cc(OCCCN3CCCCC3)ccc2C1, the pKi [1] was 8.13.

In the case of c1cc2c(c(OCCCN3CCCCC3)c1)CCNC2, the pKi [1] was < 6.52.

With CC(C)NC(=O)N1CCc2ccc(OCCCN3CCCCC3)cc2C1 the pKi [1] was 8.31 and the pKi [2] was 7.40.

Compound CCN1CCc2cc(OCCCN3CCCCC3)ccc2C1 has a pKi [1] of 9.27.

In the case of CS(=O)(=O)N1CCCc2cc(OCCCN3CCCCC3)ccc2C1, the pKi [1] was 8.54 and the pKi [2] was 7.15.

CCN1CCCc2cc(OCCCN3CCCCC3)ccc21 gave a pKi [1] of 7.39.

CC(=O)N1CCc2ccc(OCCCN3CCCCC3)cc2C1 gave a pKi [1] of 7.71 and a pKi [2] of 7.44.

c1cc(OCCCN2CCCCC2)c2c(c1)N(CC1CCCCC1)CCC2 showed a pKi [1] of 6.85.

With O=S(=O)(c1ccccc1)N1CCCc2ccc(OCCCN3CCCCC3)cc21 the pKi [1] was 8.14.

In the case of CS(=O)(=O)N1CCc2ccc(OCCCN3CCCCC3)cc2C1, the pKi [1] was 7.62 and the pKi [2] was 7.13.

CC(C)NC(=O)N1CCc2ccc(OCCCN3CCCCC3)cc2CC1 gave a pKi [1] of 7.37.

Work on CCN1CCc2c(cccc2OCCCN2CCCCC2)C1 yielded a pKi [1] of 7.07.

With c1cc2c(c(OCCCN3CCCCC3)c1)CNCC2 the pKi [1] was 6.81.

In the case of O=S(=O)(c1ccccc1)N1CCc2c(cccc2OCCCN2CCCCC2)C1, the pKi [1] was < 6.52.

Compound CCN1CCc2ccc(OCCCN3CCCCC3)cc2C1 has a pKi [1] of 9.47, a pKi [2] of 9.19 and a bioavailability [3] of 69%. It also gave an IC50 [4] of 1.1 mg/kg.

In the case of c1cc2c(cc1OCCCN1CCCCC1)CCN(CC1CCCCC1)CC2, the pKi [1] was 9.28 and the pKi [2] was 9.01.

With CCN1CCc2ccc(OCCCN3CCCCC3)cc2CC1 the pKi [1] was 9.59 and the pKi [2] was 8.96.

In the case of c1cc2c(cc1OCCCN1CCCCC1)CCCN2, the pKi [1] was 7.27.

c1cc2c(cc1OCCCN1CCCCC1)N(CC1CCCCC1)CCC2 gave a pKi [1] of 6.73.

Compound c1cc2c(cc1OCCCN1CCCCC1)CCN(CC1CCCCC1)C2 has a pKi [1] of 9.00.

In the case of c1cc2c(c(OCCCN3CCCCC3)c1)CN(CC1CCCCC1)CC2, the pKi [1] was 7.23.

With CC(C)N1CCc2ccc(OCCCN3CCCCC3)cc2CC1 the pKi [1] was 9.14 and the pKi [2] was 8.80.

For O=S(=O)(c1ccccc1)N1CCCc2cc(OCCCN3CCCCC3)ccc21, the pKi [1] was 7.74.

For O=C(c1cccs1)N1CCc2cccc(OCCCN3CCCCC3)c2C1, the pKi [1] was < 6.52.

With O=S(=O)(c1ccccc1)N1CCc2cccc(OCCCN3CCCCC3)c2C1 the pKi [1] was < 6.52.

CC(C)NC(=O)N1CCCc2cc(OCCCN3CCCCC3)ccc2C1 gave a pKi [1] of 7.77 and a pKi [2] of 7.49.

With c1cc2c(c(OCCCN3CCCCC3)c1)NCCC2 the pKi [1] was < 6.52.

Work on c1cc2c(cc1OCCCN1CCCCC1)CCNC2 yielded a Ki [1] of 2.4.

Compound CS(=O)(=O)N1CCc2ccc(OCCCN3CCCCC3)cc2CC1 has a pKi [1] of 7.92 and a pKi [2] of 7.42.

In the case of O=S(=O)(c1ccccc1)N1CCCc2cccc(OCCCN3CCCCC3)c21, the pKi [1] was < 6.52.

In the case of c1cc2c(cc1OCCCN1CCCCC1)CNCC2, the pKi [1] was 9.22.

For CCN1CCCc2c(OCCCN3CCCCC3)cccc21, the pKi [1] was < 6.52.

Compound O=C(c1cccs1)N1CCCc2ccc(OCCCN3CCCCC3)cc21 has a pKi [1] of 7.65.

c1cc2c(cc1OCCCN1CCCCC1)CN(CC1CCCCC1)CC2 gave a pKi [1] of 9.46 and a pKi [2] of 9.34.

c1cc2c(c(OCCCN3CCCCC3)c1)CCN(CC1CCCCC1)C2 showed a pKi [1] of 7.81.

In the case of CCN1CCc2cccc(OCCCN3CCCCC3)c2C1, the pKi [1] was 7.02.

For CC(C)N1CCCc2cc(OCCCN3CCCCC3)ccc2C1, the pKi [1] was 9.70, the pKi [2] was 8.89 and the bioavailability [3] was ≥ 100%. The IC50 [4] was 5.3 mg/kg.

Compound CCN1CCCc2cc(OCCCN3CCCCC3)ccc2C1 has a pKi [1] of 9.47 and a pKi [2] of 9.25.

For CC(=O)N1CCc2ccc(OCCCN3CCCCC3)cc2CC1, the pKi [1] was 7.94 and the pKi [2] was 7.31.

In the case of O=C(c1cccs1)N1CCc2ccc(OCCCN3CCCCC3)cc2C1, the pKi [1] was 8.09.

In the case of O=C(c1cccs1)N1CCc2cc(OCCCN3CCCCC3)ccc2C1, the pKi [1] was 8.68.

With c1cc2c(c(OCCCN3CCCCC3)c1)CCCN2 the pKi [1] was < 6.52.

For c1ccc(CN2CCCc3cc(OCCCN4CCCCC4)ccc3C2)cc1, the pKi [1] was 9.70 and the pKi [2] was 9.10.

With O=S(=O)(c1ccccc1)N1CCc2ccc(OCCCN3CCCCC3)cc2C1 the pKi [1] was 9.28.

Work on c1cc2c(cc1OCCCN1CCCCC1)CCCN2CC1CCCCC1 yielded a pKi [1] of 7.51.

With c1cc2c(c(OCCCN3CCCCC3)c1)N(CC1CCCCC1)CCC2 the pKi [1] was < 6.52.

In the case of O=C(c1cccs1)N1CCCc2cccc(OCCCN3CCCCC3)c21, the pKi [1] was < 6.52.

Work on c1cc2c(cc1OCCCN1CCCCC1)NCCC2 yielded a pKi [1] of 6.89.

In the case of CCN1CCCc2ccc(OCCCN3CCCCC3)cc21, the pKi [1] was 6.81.

With CCN1CCCc2cccc(OCCCN3CCCCC3)c21 the pKi [1] was < 6.52.

For O=C(c1cccs1)N1CCc2c(cccc2OCCCN2CCCCC2)C1, the pKi [1] was < 6.52.

In the case of CC(C)N1CCc2ccc(OCCCN3CCCCC3)cc2C1, the pKi [1] was 9.77 and the pKi [2] was 9.05.

From ChEMBL document CHEMBL1138084, “Synthesis and SAR of novel histamine H3 receptor antagonists” (Bioorg Med Chem Lett, 2006)
